Results as given in ChEMBL document CHEMBL3232710, “Pyrroloquinolinone-based dual topoisomerase I/II inhibitor” (2014).
Active and inactive are the calls of the source. The rule behind the calls is not given here.

Legend:
[1] = test system: HeLa; assay: Growth inhibition of human HeLa cells after 72 hrs by trypan blue assay; format: functional
[2] = test system: A-431; assay: Growth inhibition of human A431 cells after 72 hrs by trypan blue assay; format: functional; conditions: A-431, 72 h
[3] = test system: HL-60; assay: Growth inhibition of human HL60 cells after 72 hrs by trypan blue assay; format: functional; conditions: HL-60, 72 h
[4] = test system: Nucleic Acid; assay: Binding affinity to salmon testes DNA assessed as intercalation at compound to DNA ratio of 0.04 by linear dichroism analysis; format: nucleic-acid assay; conditions: Salmonidae
[5] = target: DNA topoisomerase 2-alpha (Homo sapiens) (UniProt P11388); assay: Inhibition of human recombinant topoisomerase 2-alpha-mediated pBR322 DNA relaxation at 50 uM after 60 mins by agarose gel electrophoresis
Chain of DNA topoisomerase 2-alpha (Homo sapiens) (P11388 whole entry): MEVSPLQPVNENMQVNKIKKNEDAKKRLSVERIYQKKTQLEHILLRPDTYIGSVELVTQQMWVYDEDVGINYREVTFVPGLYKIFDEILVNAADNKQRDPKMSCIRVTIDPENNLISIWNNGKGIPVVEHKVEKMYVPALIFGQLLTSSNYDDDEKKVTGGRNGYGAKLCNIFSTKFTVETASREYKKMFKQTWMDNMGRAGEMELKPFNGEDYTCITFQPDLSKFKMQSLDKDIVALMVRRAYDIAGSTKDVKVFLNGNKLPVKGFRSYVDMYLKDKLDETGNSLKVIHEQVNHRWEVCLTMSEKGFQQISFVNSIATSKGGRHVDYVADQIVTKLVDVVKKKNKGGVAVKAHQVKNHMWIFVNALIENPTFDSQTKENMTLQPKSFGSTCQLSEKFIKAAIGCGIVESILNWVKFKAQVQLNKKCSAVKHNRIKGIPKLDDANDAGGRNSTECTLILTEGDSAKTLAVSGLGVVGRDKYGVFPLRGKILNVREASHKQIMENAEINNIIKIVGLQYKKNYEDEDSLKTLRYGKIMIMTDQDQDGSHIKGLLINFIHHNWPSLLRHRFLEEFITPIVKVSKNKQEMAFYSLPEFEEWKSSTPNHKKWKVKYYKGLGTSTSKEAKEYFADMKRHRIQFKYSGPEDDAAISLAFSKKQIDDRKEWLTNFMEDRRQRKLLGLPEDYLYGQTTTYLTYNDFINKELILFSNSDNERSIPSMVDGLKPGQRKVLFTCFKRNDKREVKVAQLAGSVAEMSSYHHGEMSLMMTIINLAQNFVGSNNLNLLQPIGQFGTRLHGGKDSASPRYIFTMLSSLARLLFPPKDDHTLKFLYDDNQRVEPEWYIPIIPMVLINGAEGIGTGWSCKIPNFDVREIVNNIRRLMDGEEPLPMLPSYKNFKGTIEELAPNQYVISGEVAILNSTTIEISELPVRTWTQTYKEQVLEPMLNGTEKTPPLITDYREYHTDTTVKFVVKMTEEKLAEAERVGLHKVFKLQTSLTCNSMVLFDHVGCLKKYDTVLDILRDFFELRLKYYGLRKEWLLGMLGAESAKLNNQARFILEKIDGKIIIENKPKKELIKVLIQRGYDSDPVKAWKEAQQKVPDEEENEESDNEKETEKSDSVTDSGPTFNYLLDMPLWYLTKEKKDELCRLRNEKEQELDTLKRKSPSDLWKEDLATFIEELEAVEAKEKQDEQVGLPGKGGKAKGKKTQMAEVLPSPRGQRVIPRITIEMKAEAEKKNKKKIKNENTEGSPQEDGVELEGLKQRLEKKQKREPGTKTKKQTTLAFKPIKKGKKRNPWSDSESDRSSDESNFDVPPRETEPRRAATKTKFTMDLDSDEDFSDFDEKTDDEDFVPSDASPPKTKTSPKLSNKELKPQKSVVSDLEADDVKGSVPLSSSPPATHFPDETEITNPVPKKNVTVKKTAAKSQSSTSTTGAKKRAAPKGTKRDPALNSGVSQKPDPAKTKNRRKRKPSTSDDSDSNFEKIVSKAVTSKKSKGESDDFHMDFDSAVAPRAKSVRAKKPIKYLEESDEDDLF

[6] = target: DNA topoisomerase 2-alpha (Homo sapiens) (UniProt P11388); assay: Inhibition of human recombinant topoisomerase 2-alpha-mediated pBR322 DNA relaxation at 20 uM after 60 mins by agarose gel electrophoresis
[7] = target: DNA topoisomerase 2-alpha (Homo sapiens) (UniProt P11388); assay: Inhibition of human recombinant topoisomerase 2-alpha-mediated pBR322 DNA cleavage at 100 uM after 60 mins by agarose gel electrophoresis
[8] = organism: Bos taurus; assay: Inhibition of calf thymus topoisomerase-1-mediated pBR322 DNA relaxation after 60 mins by agarose gel electrophoresis
[9] = test system: HeLa; assay: Induction of apoptosis in human HeLa cells assessed as DNA fragmentation at 100 uM after 24 hrs by agarose gel electrophoresis; format: functional, cell-based

`Cc1cc(=O)n2c(C)cc3c(OCCNCCN(C)C)ccc1c32` was tested, and the GI50 [1] was > 50 µM, the GI50 [2] was 7.5 µM and the GI50 [3] was 25.7 µM. The Activity [4] was “Active” and the inhibition [5] was “Active”.
`Cc1c2ccncc2c(C)c2c1[nH]c1ccccc12` [ELLIPTECINE] showed a GI50 [1] of 0.3 µM, a GI50 [2] of 3.2 µM and a GI50 [3] of 2 µM.
With `Cc1cc(=O)n2c(C)cc3c(OCCCNCCN(C)C)ccc1c32` the GI50 [2] was 14.5 µM, the GI50 [3] was > 50 µM and the Activity [4] was “Active”. The inhibition [5] was “inactive”.
With `Cc1cc(=O)n2c(C)cc3c(OCCCCN(C)C)ccc1c32` the GI50 [1] was > 50 µM, the GI50 [2] was 41.3 µM and the GI50 [3] was > 50 µM. For the same compound, the Activity [4] was “Active”, the inhibition [5] was “inactive” and the inhibition [6] was “inactive”.
In the case of `Cc1cc(=O)n2c(C)cc3c(OCCCCNCCN(C)C)ccc1c32`, the inhibition [7] was “Active”, the GI50 [1] was 19.7 µM and the GI50 [2] was 13.6 µM. The inhibition [8] was “Dose-dependent effect”, the GI50 [3] was 8.3 µM and the Activity [4] was “Active”. The inhibition [5] was “Active”, the inhibition [6] was “inactive” and the Activity [9] was “Active”.
